Experimental data from ChEMBL document CHEMBL3351515, “α-Hexylcinnamaldehyde inhibits the genotoxicity of environmental pollutants in the bacterial reverse mutation assay” (2014).

Experiments:
Escherichia coli [1] = test: Antimutagenic activity against 2-aminoanthracene-induced revertant colonies in Escherichia coli WP2uvrA assessed as number of revertant colonies measured pretreatment at 9 uM (reference value: 178.7 +/- 11.8) in presence of mammalian S9 fraction; assay type: functional
Escherichia coli [2] = test: Antimutagenic activity against 2-aminoanthracene-induced revertant colonies in Escherichia coli WP2uvrA assessed as number of revertant colonies measured cotreatment at 18 uM (reference value: 366 +/- 10.3) in presence of mammalian S9 fraction; assay type: functional
Salmonella typhimurium [3] = test: Antimutagenic activity against sodium azide-induced revertant colonies in Salmonella typhimurium TA100 assessed as number of revertant colonies measured post-treatment at 900 uM (reference value: 1909 +/- 29.7) in absence of mammalian S9 fraction; assay type: functional, Salmonella enterica subsp. enterica serovar Typhimurium
Salmonella typhimurium [4] = test: Antimutagenic activity against sodium azide-induced revertant colonies in Salmonella typhimurium TA100 assessed as number of revertant colonies measured cotreatment at 180 uM (reference value: 1588 +/- 55.6) in absence of mammalian S9 fraction; assay type: functional, Salmonella enterica subsp. enterica serovar Typhimurium
Salmonella typhimurium [5] = test: Antimutagenic activity against 2-aminoanthracene-induced revertant colonies in Salmonella typhimurium TA100 assessed as number of revertant colonies measured cotreatment at 90 uM (reference value: 457.9 +/- 16.74) in presence of mammalian S9 fraction; assay type: functional, Salmonella enterica subsp. enterica serovar Typhimurium
Salmonella typhimurium [6] = test: Antimutagenic activity against 1-nitropyrene-induced revertant colonies in Salmonella typhimurium TA98 1,8 DNP assessed as inhibition of mutagenicity measured at 900 uM; assay type: functional, Salmonella enterica subsp. enterica serovar Typhimurium; settings: Salmonella enterica
Salmonella typhimurium [7] = test: Antimutagenic activity against 2-aminoanthracene-induced revertant colonies in Salmonella typhimurium TA100 assessed as number of revertant colonies measured cotreatment at 180 uM (reference value: 457.9 +/- 16.74) in presence of mammalian S9 fraction; assay type: functional, Salmonella enterica subsp. enterica serovar Typhimurium
Escherichia coli [8] = test: Antimutagenic activity against methyl methansulfonate-induced revertant colonies in Escherichia coli WP2uvrA assessed as number of revertant colonies measured cotreatment at 900 uM (reference value: 485.3 +/- 17.5) in absence of mammalian S9 fraction; assay type: functional
Salmonella typhimurium [9] = test: Antimutagenic activity against 1-nitropyrene-induced revertant colonies in Salmonella typhimurium TA98NR assessed as inhibition of mutagenicity measured at 9 to 18 uM; assay type: functional, Salmonella enterica subsp. enterica serovar Typhimurium
Salmonella typhimurium [10] = test: Antimutagenic activity against 4-nitroquinoline N-oxide-induced revertant colonies in Salmonella typhimurium TA98 assessed as inhibition of mutagenicity measured at 9 to 18 uM; assay type: functional, Salmonella enterica subsp. enterica serovar Typhimurium
Escherichia coli [11] = test: Antimutagenic activity against 2-aminoanthracene-induced revertant colonies in Escherichia coli WP2uvrA assessed as number of revertant colonies measured pretreatment at 180 uM (reference value: 178.7 +/- 11.8) in presence of mammalian S9 fraction; assay type: functional
Escherichia coli [12] = test: Antimutagenic activity against 2-aminoanthracene-induced revertant colonies in Escherichia coli WP2uvrA assessed as number of revertant colonies measured pretreatment at 900 uM (reference value: 178.7 +/- 11.8) in presence of mammalian S9 fraction; assay type: functional
Salmonella typhimurium [13] = test: Antimutagenic activity against 2-aminoanthracene-induced revertant colonies in Salmonella typhimurium TA100 assessed as number of revertant colonies measured cotreatment at 900 uM (reference value: 457.9 +/- 16.74) in presence of mammalian S9 fraction; assay type: functional, Salmonella enterica subsp. enterica serovar Typhimurium
Salmonella typhimurium [14] = test: Antimutagenic activity against 2-aminoanthracene-induced revertant colonies in Salmonella typhimurium TA100 assessed as number of revertant colonies measured post-treatment at 900 uM (reference value: 642.7 +/- 2.7) in presence of mammalian S9 fraction; assay type: functional, Salmonella enterica subsp. enterica serovar Typhimurium
Salmonella typhimurium [15] = test: Antimutagenic activity against 2-aminoanthracene-induced revertant colonies in Salmonella typhimurium TA100 assessed as number of revertant colonies measured pretreatment at 9 uM (reference value: 481.3 +/- 5.3) in presence of mammalian S9 fraction; assay type: functional, Salmonella enterica subsp. enterica serovar Typhimurium
Salmonella typhimurium [16] = test: Antimutagenic activity against 2-aminoanthracene-induced revertant colonies in Salmonella typhimurium TA100 assessed as number of revertant colonies measured cotreatment at 9 uM (reference value: 457.9 +/- 16.74) in presence of mammalian S9 fraction; assay type: functional, Salmonella enterica subsp. enterica serovar Typhimurium
Escherichia coli [17] = test: Antimutagenic activity against methyl methansulfonate-induced revertant colonies in Escherichia coli WP2uvrA assessed as number of revertant colonies measured cotreatment at 9 uM (reference value: 485.3 +/- 17.5) in absence of mammalian S9 fraction; assay type: functional
Escherichia coli [18] = test: Antimutagenic activity against 2-aminoanthracene-induced revertant colonies in Escherichia coli WP2uvrA assessed as number of revertant colonies measured post-treatment at 900 uM (reference value: 308 +/- 4) in presence of mammalian S9 fraction; assay type: functional
Salmonella typhimurium [19] = test: Antimutagenic activity against 2-aminoanthracene-induced revertant colonies in Salmonella typhimurium TA100 assessed as number of revertant colonies measured pretreatment at 900 uM (reference value: 481.3 +/- 5.3) in presence of mammalian S9 fraction; assay type: functional, Salmonella enterica subsp. enterica serovar Typhimurium
Salmonella typhimurium [20] = test: Antimutagenic activity against 2-aminoanthracene-induced revertant colonies in Salmonella typhimurium TA100 assessed as number of revertant colonies measured pretreatment at 180 uM (reference value: 481.3 +/- 5.3) in presence of mammalian S9 fraction; assay type: functional, Salmonella enterica subsp. enterica serovar Typhimurium
Escherichia coli [21] = test: Antimutagenic activity against methyl methansulfonate-induced revertant colonies in Escherichia coli WP2uvrA assessed as number of revertant colonies measured pretreatment at 90 uM (reference value: 466.7 +/- 40.4) in absence of mammalian S9 fraction; assay type: functional
Salmonella typhimurium [22] = test: Antimutagenic activity against sodium azide-induced revertant colonies in Salmonella typhimurium TA100 assessed as number of revertant colonies measured cotreatment at 900 uM (reference value: 1588 +/- 55.6) in absence of mammalian S9 fraction; assay type: functional, Salmonella enterica subsp. enterica serovar Typhimurium
Escherichia coli [23] = test: Antimutagenic activity against methyl methansulfonate-induced revertant colonies in Escherichia coli WP2uvrA assessed as number of revertant colonies measured post-treatment at 18 uM (reference value: 726.7 +/- 12.7) in absence of mammalian S9 fraction; assay type: functional
Salmonella typhimurium [24] = test: Antimutagenic activity against 2-nitrofluorene-induced revertant colonies in Salmonella typhimurium TA98 assessed as inhibition of mutagenicity measured at 900 uM; assay type: functional, Salmonella enterica subsp. enterica serovar Typhimurium; settings: Salmonella enterica
Salmonella typhimurium [25] = test: Antimutagenic activity against 2-nitrofluorene-induced revertant colonies in Salmonella typhimurium TA98 assessed as inhibition of mutagenicity measured at 9 to 18 uM; assay type: functional, Salmonella enterica subsp. enterica serovar Typhimurium
Escherichia coli [26] = test: Antimutagenic activity against 2-aminoanthracene-induced revertant colonies in Escherichia coli WP2uvrA assessed as number of revertant colonies measured post-treatment at 9 uM (reference value: 308 +/- 4) in presence of mammalian S9 fraction; assay type: functional
Salmonella typhimurium [27] = test: Antimutagenic activity against sodium azide-induced revertant colonies in Salmonella typhimurium TA100 assessed as number of revertant colonies measured cotreatment at 18 uM (reference value: 1588 +/- 55.6) in absence of mammalian S9 fraction; assay type: functional, Salmonella enterica subsp. enterica serovar Typhimurium
Salmonella typhimurium [28] = test: Antimutagenic activity against 1-nitropyrene-induced revertant colonies in Salmonella typhimurium TA98NR assessed as inhibition of mutagenicity measured at 900 uM; assay type: functional, Salmonella enterica subsp. enterica serovar Typhimurium; settings: Salmonella enterica
Salmonella typhimurium [29] = test: Antimutagenic activity against sodium azide-induced revertant colonies in Salmonella typhimurium TA100 assessed as number of revertant colonies measured pretreatment at 90 uM (reference value: 1968 +/- 46.9) in absence of mammalian S9 fraction; assay type: functional, Salmonella enterica subsp. enterica serovar Typhimurium
Salmonella typhimurium [30] = test: Antimutagenic activity against 2-aminoanthracene-induced revertant colonies in Salmonella typhimurium TA100 assessed as number of revertant colonies measured pretreatment at 90 uM (reference value: 481.3 +/- 5.3) in presence of mammalian S9 fraction; assay type: functional, Salmonella enterica subsp. enterica serovar Typhimurium

CCCCCC/C(C=O)=C\c1ccccc1
Activity (Escherichia coli [1]): 170.7
Activity (Escherichia coli [2]): 330.7
Activity (Salmonella typhimurium [3]): 1671
Activity (Salmonella typhimurium [4]): 1457
Activity (Salmonella typhimurium [5]): 408.5
inhibition at 900 µM (Salmonella typhimurium [6]): > 40%
Activity (Salmonella typhimurium [7]): 404
Activity (Escherichia coli [8]): 402.7
inhibition (INH) (Salmonella typhimurium [9]): <25%
inhibition (INH) (Salmonella typhimurium [10]): <25%
Activity (Escherichia coli [11]): 147
Activity (Escherichia coli [12]): 141.3
Activity (Salmonella typhimurium [13]): 347
Activity (Salmonella typhimurium [14]): 481.3
Activity (Salmonella typhimurium [15]): 465.3
Activity (Salmonella typhimurium [16]): 449.3
Activity (Escherichia coli [17]): 484
Activity (Escherichia coli [18]): 304.3
Activity (Salmonella typhimurium [19]): 365.3
Activity (Salmonella typhimurium [20]): 384
Activity (Escherichia coli [21]): 436
Activity (Salmonella typhimurium [22]): 1451
Activity (Escherichia coli [23]): 524
inhibition at 900 µM (Salmonella typhimurium [24]): > 40%
inhibition (INH) (Salmonella typhimurium [25]): <25%
Activity (Escherichia coli [26]): 294.7
Activity (Salmonella typhimurium [27]): 1501
inhibition at 900 µM (Salmonella typhimurium [28]): > 40%
Activity (Salmonella typhimurium [29]): 1801
Activity (Salmonella typhimurium [30]): 454.7
